Like-named read-outs stand apart in the source and are kept apart here. Marks after values point to notes of the source that are not given here.
Assays:
female obese Zucker rats = assay: Serum lipid and glycemic control variables in chow-fed obese female Zucker rats, daily oral gavage for two weeks; assay type: in vivo, rat; conditions: for change in vivo at 100 mg/kg: Rattus norvegicus, Table 9; for Glucose / HDL-C / NEFA / Non-HDL-C / TG / Insulin: serum, mean ± SEM; for Insulin: Tables 10, 11
Summary of the method: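 Female obese Zucker fa rats, 10–12 wk, 400–500 g, chow-fed, dosed daily by oral gavage for 14 days in CMC/Tween 20 or ethanol/PEG-200 vehicle. After a 6-h fast, serum was sampled pre-dose, day 7 and day 14. Triglycerides, total cholesterol, NEFA and β-hydroxybutyrate were measured, plus lipoprotein cholesterol by gel-filtration profiling.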

CC(C)(CCCCC(=O)CCCCC(C)(C)C(=O)O)C(=O)O [Compound 210c, 7-Oxo-2,2,12,12-tetramethyltridecanedioic acid]
melting point: 60 to 61.5 °C | Insulin, percent increase (+) or decrease (−) of the pretreatment control value (female obese Zucker rats; 10 mg/kg daily oral, 1 wk): (−27) percent | Non-HDL-C, percent increase (+) or decrease (−) of the pretreatment control value (female obese Zucker rats; 10 mg/kg daily oral, 1 wk): (−35) percent | HDL-C, percent increase (+) or decrease (−) of the pretreatment control value (female obese Zucker rats; 30 mg/kg daily oral, 1 wk): (+156) percent | NEFA, percent increase (+) or decrease (−) of the pretreatment control value (female obese Zucker rats; 30 mg/kg daily oral, 1 wk): (−29) percent | Non-HDL-C, percent increase (+) or decrease (−) of the pretreatment control value (female obese Zucker rats; 30 mg/kg daily oral, 1 wk): (−23) percent | TG, percent increase (+) or decrease (−) of the pretreatment control value (female obese Zucker rats; 30 mg/kg daily oral, 1 wk): (−33) percent | HDL-C, percent increase (+) or decrease (−) of the pretreatment control value (female obese Zucker rats; 30 mg/kg daily oral, 2 wk): (+147) percent | HDL-C, percent increase (+) or decrease (−) of the pretreatment control value (female obese Zucker rats; 100 mg/kg daily oral, 1 wk): (+174) percent | NEFA, percent increase (+) or decrease (−) of the pretreatment control value (female obese Zucker rats; 100 mg/kg daily oral, 1 wk): (−33) percent | Non-HDL-C, percent increase (+) or decrease (−) of the pretreatment control value (female obese Zucker rats; 100 mg/kg daily oral, 1 wk): (−42) percent | TG, percent increase (+) or decrease (−) of the pretreatment control value (female obese Zucker rats; 100 mg/kg daily oral, 1 wk): (−60) percent | HDL-C, percent increase (+) or decrease (−) of the pretreatment control value (female obese Zucker rats; 100 mg/kg daily oral, 2 wk): (+179) percent | NEFA, percent increase (+) or decrease (−) of the pretreatment control value (female obese Zucker rats; 100 mg/kg daily oral, 2 wk): (−45) percent | Non-HDL-C, percent increase (+) or decrease (−) of the pretreatment control value (female obese Zucker rats; 100 mg/kg daily oral, 2 wk): (−29) percent | TG, percent increase (+) or decrease (−) of the pretreatment control value (female obese Zucker rats; 100 mg/kg daily oral, 2 wk): (−54) percent | change in vivo at 100 mg/kg (female obese Zucker rats; 168 h, 100 mg/kg daily oral, 1 wk, read-out: HDL-Cholesterol, Percent Change from Pre-Treatment): 54% | change in vivo at 100 mg/kg (female obese Zucker rats; 168 h, 100 mg/kg daily oral, 1 wk, read-out: NonHDL-Cholesterol, Percent Change from Pre-Treatment): -62% | change in vivo at 100 mg/kg (female obese Zucker rats; 168 h, 100 mg/kg daily oral, 1 wk, read-out: TG, Percent Change from Pre-Treatment): -74% | change in vivo at 100 mg/kg (female obese Zucker rats; 336 h, 100 mg/kg daily oral, 2 wk, read-out: HDL-Cholesterol, Percent Change from Pre-Treatment): 78% | change in vivo at 100 mg/kg (female obese Zucker rats; 336 h, 100 mg/kg daily oral, 2 wk, read-out: NonHDL-Cholesterol, Percent Change from Pre-Treatment): -41% | change in vivo at 100 mg/kg (female obese Zucker rats; 336 h, 100 mg/kg daily oral, 2 wk, read-out: TG, Percent Change from Pre-Treatment): -69% | Glucose (female obese Zucker rats; 3 mg/kg daily oral, 1 wk): 99 ± 4 mg/dL | HDL-C (female obese Zucker rats; 3 mg/kg daily oral, 1 wk): 36 ± 1 mg/dL | NEFA (female obese Zucker rats; 3 mg/kg daily oral, 1 wk): 1.2 ± 0.16 mg/dL | Non-HDL-C (female obese Zucker rats; 3 mg/kg daily oral, 1 wk): 24 ± 2 mg/dL | TG (female obese Zucker rats; 3 mg/kg daily oral, 1 wk): 775 ± 92 mg/dL | Insulin (female obese Zucker rats; 3 mg/kg daily oral, 1 wk): 10.7 ± 0.8 ng/dL | Glucose (female obese Zucker rats; 3 mg/kg daily oral, 2 wk): 103 ± 3 mg/dL | HDL-C (female obese Zucker rats; 3 mg/kg daily oral, 2 wk): 33 ± 1 mg/dL | NEFA (female obese Zucker rats; 3 mg/kg daily oral, 2 wk): 1.5 ± 0.27 mg/dL | Non-HDL-C (female obese Zucker rats; 3 mg/kg daily oral, 2 wk): 24 ± 3 mg/dL | TG (female obese Zucker rats; 3 mg/kg daily oral, 2 wk): 857 ± 103 mg/dL | Insulin (female obese Zucker rats; 3 mg/kg daily oral, 2 wk): 8.6 ± 0.5 ng/dL | Glucose (female obese Zucker rats; 10 mg/kg daily oral, 1 wk): 105 ± 3 mg/dL | HDL-C (female obese Zucker rats; 10 mg/kg daily oral, 1 wk): 47 ± 7 mg/dL | NEFA (female obese Zucker rats; 10 mg/kg daily oral, 1 wk): 0.92 ± 0.09 | Non-HDL-C (female obese Zucker rats; 10 mg/kg daily oral, 1 wk): 26 ± 4^a mg/dl | TG (female obese Zucker rats; 10 mg/kg daily oral, 1 wk): 692 ± 180 mg/dL | Insulin (female obese Zucker rats; 10 mg/kg daily oral, 1 wk): 7.7 ± 1.0^a ng/dl | Glucose (female obese Zucker rats; 10 mg/kg daily oral, 2 wk): 113 ± 3 mg/dL | HDL-C (female obese Zucker rats; 10 mg/kg daily oral, 2 wk): 39 ± 5 mg/dL | NEFA (female obese Zucker rats; 10 mg/kg daily oral, 2 wk): 1.5 ± 0.28 mg/dL | Non-HDL-C (female obese Zucker rats; 10 mg/kg daily oral, 2 wk): 27 ± 4 mg/dL | TG (female obese Zucker rats; 10 mg/kg daily oral, 2 wk): 814 ± 205 mg/dL | Insulin (female obese Zucker rats; 10 mg/kg daily oral, 2 wk): 8.9 ± 1.3 ng/dL | Glucose (female obese Zucker rats; 30 mg/kg daily oral, 1 wk): 115 ± 4 mg/dL | HDL-C (female obese Zucker rats; 30 mg/kg daily oral, 1 wk): 53 ± 8^a mg/dl | NEFA (female obese Zucker rats; 30 mg/kg daily oral, 1 wk): 1.0 ± 0.11 | Non-HDL-C (female obese Zucker rats; 30 mg/kg daily oral, 1 wk): 37 ± 4^a mg/dl | TG (female obese Zucker rats; 30 mg/kg daily oral, 1 wk): 826 ± 92^a mg/dl | Insulin (female obese Zucker rats; 30 mg/kg daily oral, 1 wk): 9.2 ± 1.3 ng/dL | Glucose (female obese Zucker rats; 30 mg/kg daily oral, 2 wk): 118 ± 8 mg/dL | HDL-C (female obese Zucker rats; 30 mg/kg daily oral, 2 wk): 50 ± 9^a mg/dl | NEFA (female obese Zucker rats; 30 mg/kg daily oral, 2 wk): 1.1 ± 0.20 mg/dL | Non-HDL-C (female obese Zucker rats; 30 mg/kg daily oral, 2 wk): 43 ± 5 mg/dL | TG (female obese Zucker rats; 30 mg/kg daily oral, 2 wk): 962 ± 118 mg/dL | Insulin (female obese Zucker rats; 30 mg/kg daily oral, 2 wk): 8.5 ± 1.8 ng/dL | Glucose (female obese Zucker rats; 100 mg/kg daily oral, 1 wk): 113 ± 6 mg/dL | HDL-C (female obese Zucker rats; 100 mg/kg daily oral, 1 wk): 66 ± 9^a mg/dl | NEFA (female obese Zucker rats; 100 mg/kg daily oral, 1 wk): 0.81 ± 0.07 | Non-HDL-C (female obese Zucker rats; 100 mg/kg daily oral, 1 wk): 18 ± 3^a mg/dl | TG (female obese Zucker rats; 100 mg/kg daily oral, 1 wk): 383 ± 49^a mg/dl | Insulin (female obese Zucker rats; 100 mg/kg daily oral, 1 wk): 9.0 ± 1.0 ng/dL | Glucose (female obese Zucker rats; 100 mg/kg daily oral, 2 wk): 122 ± 7 mg/dL | HDL-C (female obese Zucker rats; 100 mg/kg daily oral, 2 wk): 68 ± 10^a mg/dl | NEFA (female obese Zucker rats; 100 mg/kg daily oral, 2 wk): 0.66 ± 0.06 | Non-HDL-C (female obese Zucker rats; 100 mg/kg daily oral, 2 wk): 22 ± 3^a mg/dl | TG (female obese Zucker rats; 100 mg/kg daily oral, 2 wk): 440 ± 58^a mg/dl | Insulin (female obese Zucker rats; 100 mg/kg daily oral, 2 wk): 9.5 ± 0.9 ng/dL
